Measurements as given in patent US20220242963A1, “B-CELL ACTIVATING CD73 ANTIBODIES” (CORVUS PHARMACEUTICALS, INC., priority 2018, published 2022).

System: B cells (CD19+CD3−)
Assay: B cell activation in healthy donor PBMC, flow cytometry of surface markers / phospho ERK
Type: cell-based, human
Details: human B lymphocytes
Text: With reference to FIGS. 2A-2E, each group of four bars from left to right represent data for: untreated donors, donors treated with human IgG1 isotype control, donors treated with BCR stimulation, and donors treated with CPI-006. The experiments for FIGS. 2A-2E are based on healthy donor PBMC treated overnight with flow cytometry analysis of surface markers on B cells (CD19^POS CD3^NEG). These lymphocyte markers are consistent with activation of B cells as well as other antigen presenting cell populations. […] The bar graph legend from top to bottom is representative of the data bars from left to right. […] For FIG. 2H the bar graph legend from top to bottom is representative of the data bars from left to right. For FIG. 2I the legend from top to bottom is representative of the data from top to bottom. […] For each group of four bars, the legend from top to bottom are representative of the bars from left to right.
PBMC were isolated from healthy donors and incubated with bead-bound anti-IgM, CPI-006 (10 μg/mL), or human IgG1 isotype control (10 μg/mL) overnight. Flow cytometry analysis was performed with gating on B cells (CD19+CD3−) and mean fluorescence intensity (MFI) was reported for staining with antibodies to the cell surface markers CD69, CD83, and CD25, as shown in FIGS. 2A-2C. PBMC were isolated from healthy donors and incubated with CPI-006, CPI-016, human IgG1 isotype control, and anti-human CD73 antibody, clone AD2 (available from Bio-Rad Antibodies) over a range of concentrations from about 0.1 μg/mL to more than 10 μg/mL. Flow cytometry analysis was performed with gating on B cells (CD19+CD3−) and mean fluorescence intensity (MFI) is reported for antibody staining of CD69, as shown in FIG. 2F. PBMC were isolated from healthy donors and incubated overnight with bead-bound anti-IgM or CPI-006 (1 μg/mL)+/−BTK inhibitor, ibrutinib (100 nM). Flow cytometry analysis was performed with gating on B cells (CD19+CD3−) and mean fluorescence intensity (MFI) is reported for antibody staining of CD69 and CD83, as shown in FIG. 2G. PBMC were isolated from healthy donors and incubated overnight with APCP (1 μM) or CPI-006 (1 μg/mL)+/−NECA (5′-N-ethylcarboxamidoadenosine). Flow cytometry analysis was performed with gating on B cells (CD19+CD3−) and mean fluorescence intensity (MFI) is reported for antibody staining of CD69, as shown in FIGS. 2H-2I. PBMC were isolated from healthy donors and incubated with the indicated treatments for 15 minutes. Flow cytometry analysis was performed with gating on the indicated cell populations and staining of phospho ERK was evaluated, as shown in FIG. 2J.

Substance: MEDI9447: anti-CD73 antibody described by Hay CM et al., Oncoimmunology 2016 [reference compound]
- direct B cell activation: do not show this effect
